Results: ChEMBL document CHEMBL1811854, “Phenolic compounds from the roots of Jordanian viper's grass, Scorzonera judaica” (J Nat Prod, 2011)

Legend:
Assay type in all cases: functional, cell-based
Jurkat = test: Cytotoxicity against human Jurkat cells by MTT assay
MCF7 = test: Cytotoxicity against human MCF7 cells by MTT assay
HeLa = test: Cytotoxicity against human HeLa cells by MTT assay

Measured: IC50

C[C@@H]1O[C@@H](O[C@@H]2[C@@H](O)[C@H](Oc3ccc([C@@H]4Cc5cccc(O)c5C(=O)O4)cc3)O[C@H](CO)[C@H]2O)[C@H](O)[C@H](O)[C@H]1O
> 100 µM: all assays above

O=C1O/C(=C\c2ccc(O)c(O)c2)c2cccc(O[C@@H]3O[C@H](CO)[C@@H](O)[C@H](O)[C@H]3O)c21
> 100 µM: all assays above

O=C(Cc1cccc(O)c1C(=O)O)c1ccc(O)cc1
> 100 µM: all assays above

O=C(Cc1cccc(O)c1C(=O)O)c1ccc(O)c(O)c1
> 100 µM: all assays above

COc1cc(C(=O)Cc2cccc(O)c2C(=O)O)cc(O)c1O
> 100 µM: all assays above

O=C(O)c1c(O)cccc1/C=C/c1ccc(O[C@@H]2O[C@H](CO)[C@@H](O)[C@H](O)[C@H]2O)cc1
> 100 µM: all assays above

O=C1OC(c2ccc(O)c(O)c2)C/C1=C\c1ccc(O)c(O)c1 (configuration not stated)
> 100 µM: all assays above

O=C1OC(c2ccc(O)c(O)c2)=C/C1=C/c1ccc(O)c(O)c1
> 100 µM: all assays above

COc1cc([C@H]2O[C@H](O[C@@H]3O[C@H](CO)[C@@H](O)[C@H](O)[C@H]3O)[C@H]3[C@H]2CO[C@H]3c2ccc(O)c(OC)c2)ccc1O
> 100 µM: all assays above
